Experimental findings from patent EP4714939A1, “SULFONAMIDE COMPOUND, PREPARATION METHOD THEREFOR, AND PHARMACEUTICAL USE THEREOF” (Shenzhen Salubris Pharmaceuticals Co., Ltd., priority 2023, dated 2024) are described below.

This assay concerns Lp(a). In words: In-vitro Lp(a) assembly assay (cell-free, sandwich ELISA). It is filed as biochemical. Conditions: inhibition of Lp(a) formation; HepG2 and HEK293 (human Apo(a), 17 Kringle repeats) conditioned media, 37°C, 2 hours; 4-parameter curve. The procedure: The capability of the compounds in the examples inhibiting the formation of Lp(a) particles in vitro was evaluated through cell-free assembly assay. After incubation at 37°C with 5% CO2 for 96 h, conditioned media (supplemented with 10% FBS, 20 mM HEPES, and 1 × penicillin/streptomycin DMEM) was collected from confluent wild-type HepG2 cells (source of endogenously expressed ApoB) and an HEK293 stable cell line expressing human Apo(a) protein containing 17 Kringle repeats (selected on 1 ug/ml puromycin). In-vitro assembly assay was performed by combining equal parts of HepG2 and HEK293 conditioned media with compounds under test added in a dilution series (final concentration being 0.03-1000 nM). A reaction was incubated at 37°C for 2 hours, and terminated by adding 6-aminocaproic acid (EACA) to a final concentration of 150 mM. Sandwich ELISA was used to detect Lp(a) using an anti-Apo(a) capture antibody (ab242565) and an HRP-conjugated anti-ApoB detection antibody (ab27622). ELISA was performed using TMB staining, and terminated with 1N sulfuric acid, and signals were read at 450 nm on an Envision 2104 plate reader. By setting an assembly reaction without inhibitors to 0% inhibition and an assembly reaction with the minimum amount of HepG2 conditioned medium (50-fold dilution) to 100% inhibition, the % inhibition of Lp(a) formed under each test condition was determined. Table 1 IC90 values of sulfonamide compounds
(In an ELISA, binding on a coated surface is turned into a signal by an enzyme label.)
As usually defined, the IC90 is the concentration needed for an effect of 90%. A high value points to weaker potency. Take `O=C(O)C(Cc1cccc(CN(Cc2cccc(CC(C(=O)O)C3CCNC3)c2)S(=O)(=O)c2cc(CC(C(=O)O)C3CCNC3)ccc2F)c1)C1CCNC1` [Compound 29, (2S,2'S)-3,3'(5-((S)-2-carboxyl-2-(R)-pyrrolid-3-yl)ethyl)-2-fluorophenyl sulfonyl)azadiyl)dimethylenyl)bis(3,1-phenylenyl)bis(2-(R)-pyrrolid-3-yl)propanoic acid)]: the IC90 stood at 24.9 nM.
Next, `O=C(O)[C@@H](Cc1cccc(CN(Cc2c(F)ccc(C[C@H](C(=O)O)[C@H]3CCNC3)c2F)S(=O)(=O)c2cccc(C[C@H](C(=O)O)[C@H]3CCNC3)c2)c1)[C@H]1CCNC1` [Compound 32]: 31.4 nM.
Next, `O=C(O)[C@@H](Cc1cccc(CCN(Cc2ccc(Cl)c(C[C@H](C(=O)O)[C@H]3CCNC3)c2)S(=O)(=O)c2cccc(C[C@H](C(=O)O)[C@H]3CCNC3)c2)c1)[C@H]1CCNC1` [Compound 38]: 81.8 nM; `O=C(O)[C@@H](Cc1cc(F)cc(CCN(Cc2cccc(C[C@H](C(=O)O)[C@H]3CCNC3)c2)S(=O)(=O)c2cccc(C[C@H](C(=O)O)[C@H]3CCNC3)c2)c1)[C@H]1CCNC1` [Compound 28]: 86.5 nM.
Consider `O=C(O)[C@@H](Cc1cccc(CN(Cc2cc(C[C@H](C(=O)O)[C@H]3CCNC3)ccc2F)S(=O)(=O)c2cccc(C[C@H](C(=O)O)[C@H]3CCNC3)c2)c1)[C@H]1CCNC1` [Compound 4], for which the 90% effect level (IC90) was put at 40.3 nM.
In the case of `O=C(O)C(Cc1cccc(CCN(CCc2cccc(CC(C(=O)O)C3CCNC3)c2)S(=O)(=O)c2cccc(CC(C(=O)O)C3CCNC3)c2)c1)C1CCNC1` [Compound 21, (2S,2'S)-3,3'(3-((S)-2-carboxyl-2-((R)-pyrrolid-3-yl)ethyl)phenyl)sulfonyl)azadiyl)bis(ethane-2,1-diyl))bis(3,1-phenylenyl)bis(2-(R)-pyrrolid-3-yl)propanoic acid)], the 90% effect level (IC90) was put at 33.9 nM.
Next, `O=C(O)[C@@H](Cc1cc(CN(Cc2ccc(F)c(C[C@H](C(=O)O)[C@H]3CCNC3)c2)S(=O)(=O)c2ccc(Cl)c(C[C@H](C(=O)O)[C@H]3CCNC3)c2)ccc1F)[C@H]1CCNC1` [Compound 36, (2S,2'S)-3,3'-(((((3-((S)-2-carboxyl-2-((R)-pyrrolid-3-yl)ethyl)-4-chlorophenyl)sulfonyl)azadiyl)bis(methylenyl))bis(6-fluoro-3,1-phenylenyl))bis(2-((R)-pyrrolid-3-yl)propanoic acid)]: 21.6 nM.
Next, `O=C(O)C(Cc1cccc(CN(Cc2cccc(CC(C(=O)O)C3CCNC3)c2)S(=O)(=O)c2cccc(CC(C(=O)O)C3CCNC3)c2F)c1)C1CCNC1` [Compound 8, (2S,2'S)-3,3'(3-(S)-2-carboxyl-2-(R)-pyrrolid-3-yl)ethyl)-2-fluorophenyl sulfonyl)azadiyl)dimethylenyl)bis(3,1-phenylenyl)bis(2-(R)-pyrrolid-3-yl)propanoic acid)]: 26.1 nM; `O=C(O)[C@@H](Cc1cccc(S(=O)(=O)N(CCc2ccccc2C[C@H](C(=O)O)[C@H]2CCNC2)Cc2ccc(F)c(C[C@H](C(=O)O)[C@H]3CCNC3)c2)c1)[C@H]1CCNC1` [Compound 24]: 25.8 nM.
For `O=C(O)[C@@H](Cc1cccc(CN(Cc2cccc(C[C@H](C(=O)O)[C@H]3CCNC3)c2F)S(=O)(=O)c2cccc(C[C@H](C(=O)O)[C@H]3CCNC3)c2)c1)[C@H]1CCNC1` [Compound 5] the value was 37.9 nM; for `O=C(O)[C@@H](Cc1cccc(S(=O)(=O)N(CCc2ccccc2C[C@H](C(=O)O)[C@H]2CCNC2)Cc2cc(C[C@H](C(=O)O)[C@H]3CCNC3)ccc2F)c1)[C@H]1CCNC1` [Compound 26], 86.7 nM.
`O=C(O)C(Cc1cccc(CN(Cc2cccc(CC(C(=O)O)C3CCNC3)c2)S(=O)(=O)c2cc(F)cc(CC(C(=O)O)C3CCNC3)c2)c1)C1CCNC1` [Compound 7, (2S,2'S)-3,3'(3-((S)-2-carboxyl-2-(R)-pyrrolid-3-yl)ethyl)-5-fluorophenyl sulfonyl)azadiyl)dimethylenyl)bis(3,1-phenylenyl)bis(2-(R)-pyrrolid-3-yl)propanoic acid)]: it took 69.9 nM to reach the 90% level (IC90).
Next, `O=C(O)C(Cc1cccc(S(=O)(=O)N(Cc2ccc(Cl)c(CC(C(=O)O)C3CCNC3)c2)Cc2ccc(Cl)c(CC(C(=O)O)C3CCNC3)c2)c1)C1CCNC1` [Compound 40, (2S,2'S)-3,3'-(3-((S)-2-carboxyl-2-((R)-pyrrolid-3-yl)ethyl)phenyl)sulfonyl)azadiyl)dimethylenyl)bis(6-chloro-3,1-phenylenyl)bis(2-(R)-pyrrolid-3-yl)propanoic acid)]: 15.7 nM; `O=C(O)[C@@H](Cc1cccc(CN(Cc2ccc(F)c(C[C@H](C(=O)O)[C@H]3CCNC3)c2F)S(=O)(=O)c2cccc(C[C@H](C(=O)O)[C@H]3CCNC3)c2)c1)[C@H]1CCNC1` [Compound 30]: 29 nM; `O=C(O)[C@@H](Cc1cccc(S(=O)(=O)N(Cc2cc(C[C@H](C(=O)O)[C@H]3CCNC3)c(F)cc2F)Cc2cc(C[C@H](C(=O)O)[C@H]3CCNC3)c(F)cc2F)c1)[C@H]1CCNC1` [Compound 16]: 23.8 nM.
Next, `O=C(O)[C@@H](Cc1cccc(CN(Cc2cccc(C[C@H](C(=O)O)[C@H]3CCNC3)c2)S(=O)(=O)c2ccc(F)c(C[C@H](C(=O)O)[C@H]3CCNC3)c2)c1)[C@H]1CCNC1` [Compound 6]: 47.8 nM; `O=C(O)[C@@H](Cc1cccc(CN(Cc2ccc(Cl)c(C[C@H](C(=O)O)[C@H]3CCNC3)c2)S(=O)(=O)c2ccc(F)c(C[C@H](C(=O)O)[C@H]3CCNC3)c2)c1)[C@H]1CCNC1` [Compound 39, (S)-3-(5-(N-(3-((S)-2-carboxyl-2-((R)-pyrrolid-3-yl)ethyl)-4-chlorobenzyl)-N-(3-((S)-2-carboxyl-2-((R)-pyrrolid-3-yl)ethyl)benzyl)aminosulfonyl)-2-fluorophenyl)-2-((R)-pyrrolid-3-yl)propanoic acid]: 24.9 nM.
`O=C(O)C(Cc1cccc(S(=O)(=O)N(Cc2ccc(Cl)c(CC(C(=O)O)C3CCNC3)c2)Cc2ccc(Cl)c(CC(C(=O)O)C3CCNC3)c2)c1)C1CCNC1` [Compound 41, (2S,2'S)-3,3'-(3-((S)-2-carboxyl-2-((R)-pyrrolid-3-yl)ethyl)phenyl)sulfonyl)azadiyl)dimethylenyl)bis(6-chloro-3,1-phenylenyl)bis(2-(R)-pyrrolid-3-yl)propanoic acid)]: it took 38.1 nM to reach the 90% level (IC90).
Next, `O=C(O)C(Cc1cccc(CN(Cc2cccc(CC(C(=O)O)C3CCNC3)c2)S(=O)(=O)c2ccc(Cl)c(CC(C(=O)O)C3CCNC3)c2)c1)C1CCNC1` [Compound 35, (2S,2'S)-3,3'-(((((3-((S)-2-carboxyl-2-((R)-pyrrolid-3-yl)ethyl)-4-chlorophenyl)sulfonyl)azadiyl)bis(methylenyl))bis(3,1-phenylenyl))bis(2-((R)-pyrrolid-3-yl)propanoic acid)]: 41.3 nM; `O=C(O)[C@@H](Cc1cccc(CN(Cc2ccc(F)c(C[C@H](C(=O)O)[C@H]3CCNC3)c2)S(=O)(=O)c2cccc(C[C@H](C(=O)O)[C@H]3CCNC3)c2)c1)[C@H]1CCNC1` [Compound 2]: 62.6 nM; `O=C(O)[C@@H](Cc1cccc(S(=O)(=O)N(CCc2ccccc2C[C@H](C(=O)O)[C@H]2CCNC2)Cc2cccc(C[C@H](C(=O)O)[C@H]3CCNC3)c2F)c1)[C@H]1CCNC1` [Compound 25, (S)-3-(3-(N-(3-((S)-2-carboxyl-2-((R)-pyrrolid-3-yl)etyhl)-2-fluorobenzyl) -N-(2-(S)2-carboxyl-2-((R)-pyrrolid-3-yl)ethyl)phenethyl)aminosulfonyl)phenyl)-2-(((R)-pyrrolid-3-yl)propanoic acid]: 81.7 nM.
For `O=C(O)[C@@H](Cc1cccc(CN(Cc2cc(C[C@H](C(=O)O)[C@H]3CCNC3)c(F)cc2F)S(=O)(=O)c2cccc(C[C@H](C(=O)O)[C@H]3CCNC3)c2)c1)[C@H]1CCNC1` [Compound 15] the value was 16 nM.
For `O=C(O)C(Cc1cc(S(=O)(=O)N(Cc2ccc(Cl)c(CC(C(=O)O)C3CCNC3)c2)Cc2ccc(Cl)c(CC(C(=O)O)C3CCNC3)c2)ccc1F)C1CCNC1` [Compound 42, (2S,2'S)-3,3'(3-((S)-2-carboxyl-2-(R)-pyrrolid-3-yl)ethyl)-4-fluorophenylsu lfonyl)azadiyl)dimethylenyl)bis(6-chloro-3,1-phenylenyl)bis(2-(R)-pyrrolid-3-yl)propanoic acid)] the value was 25.1 nM.
`O=C(O)[C@@H](Cc1cccc(S(=O)(=O)N(CCc2ccccc2C[C@H](C(=O)O)[C@H]2CCNC2)Cc2cc(C[C@H](C(=O)O)[C@H]3CCNC3)c(F)cc2F)c1)[C@H]1CCNC1` [Compound 27] registered an IC90 of 79.6 nM.
Next, `O=C(O)[C@@H](Cc1cccc(CCN(Cc2cccc(C[C@H](C(=O)O)[C@H]3CCNC3)c2)S(=O)(=O)c2cccc(C[C@H](C(=O)O)[C@H]3CCNC3)c2)c1)[C@H]1CCNC1` [Compound 20]: 30.7 nM; `O=C(O)[C@@H](Cc1cccc(S(=O)(=O)N(Cc2cc(C[C@H](C(=O)O)[C@H]3CCNC3)ccc2F)Cc2cc(C[C@H](C(=O)O)[C@H]3CCNC3)ccc2F)c1)[C@H]1CCNC1` [Compound 13]: 11.5 nM.
For `O=C(O)[C@@H](Cc1cccc(CN(Cc2ccc(Cl)c(C[C@H](C(=O)O)[C@H]3CCNC3)c2)S(=O)(=O)c2cccc(C[C@H](C(=O)O)[C@H]3CCNC3)c2)c1)[C@H]1CCNC1` [Compound 10] the value was 52.3 nM.
